The text below walks through data of patent US9006450B2 (Boehringer Ingelheim International GmbH, priority 2010, dated 2015).

Structures are written as SMILES.

T1 sequence (O00763 129-2458 limits assumed): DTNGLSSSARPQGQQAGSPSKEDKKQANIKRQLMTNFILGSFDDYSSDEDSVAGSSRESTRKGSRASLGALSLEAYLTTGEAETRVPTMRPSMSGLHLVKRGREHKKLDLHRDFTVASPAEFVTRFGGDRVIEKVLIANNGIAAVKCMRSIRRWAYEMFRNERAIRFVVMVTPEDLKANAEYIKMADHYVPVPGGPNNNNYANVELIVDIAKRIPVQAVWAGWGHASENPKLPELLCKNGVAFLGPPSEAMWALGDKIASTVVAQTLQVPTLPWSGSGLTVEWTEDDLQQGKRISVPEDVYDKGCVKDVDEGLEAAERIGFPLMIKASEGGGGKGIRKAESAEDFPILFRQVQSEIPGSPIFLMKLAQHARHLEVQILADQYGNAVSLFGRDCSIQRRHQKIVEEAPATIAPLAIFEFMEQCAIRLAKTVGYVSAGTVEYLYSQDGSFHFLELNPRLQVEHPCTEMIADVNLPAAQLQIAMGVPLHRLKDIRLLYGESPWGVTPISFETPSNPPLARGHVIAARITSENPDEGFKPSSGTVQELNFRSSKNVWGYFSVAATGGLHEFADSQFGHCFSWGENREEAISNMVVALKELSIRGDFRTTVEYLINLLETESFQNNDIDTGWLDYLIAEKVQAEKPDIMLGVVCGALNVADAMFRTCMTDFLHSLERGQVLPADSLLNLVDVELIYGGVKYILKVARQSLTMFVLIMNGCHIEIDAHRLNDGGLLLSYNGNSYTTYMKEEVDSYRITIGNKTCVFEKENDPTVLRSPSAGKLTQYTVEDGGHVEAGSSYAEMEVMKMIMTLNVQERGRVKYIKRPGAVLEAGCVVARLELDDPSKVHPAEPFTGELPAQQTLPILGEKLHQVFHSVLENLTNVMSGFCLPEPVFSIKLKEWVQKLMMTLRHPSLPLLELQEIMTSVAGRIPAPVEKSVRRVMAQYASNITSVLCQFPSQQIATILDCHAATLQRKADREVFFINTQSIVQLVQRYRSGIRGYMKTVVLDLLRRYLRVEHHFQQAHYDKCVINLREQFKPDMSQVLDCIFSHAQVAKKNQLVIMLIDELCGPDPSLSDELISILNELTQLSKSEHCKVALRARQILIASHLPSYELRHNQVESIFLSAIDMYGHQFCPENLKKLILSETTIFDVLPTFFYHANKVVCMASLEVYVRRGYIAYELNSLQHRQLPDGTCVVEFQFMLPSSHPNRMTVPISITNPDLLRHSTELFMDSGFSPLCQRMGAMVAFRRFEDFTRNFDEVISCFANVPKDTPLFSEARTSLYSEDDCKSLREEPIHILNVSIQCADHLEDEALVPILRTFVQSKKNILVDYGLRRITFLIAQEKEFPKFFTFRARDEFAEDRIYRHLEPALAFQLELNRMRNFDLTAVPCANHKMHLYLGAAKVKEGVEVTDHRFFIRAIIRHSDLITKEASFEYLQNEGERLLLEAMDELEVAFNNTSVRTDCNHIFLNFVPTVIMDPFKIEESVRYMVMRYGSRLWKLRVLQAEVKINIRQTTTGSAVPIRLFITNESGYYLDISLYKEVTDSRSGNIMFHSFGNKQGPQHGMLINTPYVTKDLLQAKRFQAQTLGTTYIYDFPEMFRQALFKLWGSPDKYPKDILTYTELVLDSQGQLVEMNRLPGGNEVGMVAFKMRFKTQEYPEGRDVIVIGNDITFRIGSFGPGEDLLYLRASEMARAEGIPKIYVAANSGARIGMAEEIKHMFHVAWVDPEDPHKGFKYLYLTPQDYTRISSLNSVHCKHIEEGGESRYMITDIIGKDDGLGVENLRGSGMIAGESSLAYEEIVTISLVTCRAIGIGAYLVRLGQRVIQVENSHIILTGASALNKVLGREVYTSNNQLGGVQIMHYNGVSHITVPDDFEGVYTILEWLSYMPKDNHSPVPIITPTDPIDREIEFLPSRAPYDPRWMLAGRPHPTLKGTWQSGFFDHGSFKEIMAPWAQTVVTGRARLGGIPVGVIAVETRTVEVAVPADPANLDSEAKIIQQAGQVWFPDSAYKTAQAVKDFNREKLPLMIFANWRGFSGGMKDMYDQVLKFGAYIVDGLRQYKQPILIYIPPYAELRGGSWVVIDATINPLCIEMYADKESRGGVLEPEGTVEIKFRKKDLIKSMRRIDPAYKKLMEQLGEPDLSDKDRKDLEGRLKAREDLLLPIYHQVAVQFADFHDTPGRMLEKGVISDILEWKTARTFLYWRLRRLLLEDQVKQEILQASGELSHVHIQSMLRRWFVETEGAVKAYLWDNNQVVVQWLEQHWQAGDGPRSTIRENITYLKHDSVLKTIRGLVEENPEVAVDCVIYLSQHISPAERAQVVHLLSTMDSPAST

This experiment concerns the target T1, human ACC2 (Homo sapiens, UniProt O00763).
T1 construct: made in house; host or cells: insect cells (baculoviral expression system)
The experiment can be described thus: ACC2 assay, spectrophotometric 384 well assay (NADH-linked, coupled lactate dehydrogenase/pyruvate kinase). It is filed as biochemical. The note with it: ACC2 assay, hACC2 construct lacking 128 N-terminal amino acids, 25° C., 340 nm; read-out: IC50. The method in brief:
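Human ACC2 lacking N-terminal 128 aa, baculovirus/insect-cell expressed, anion-exchange purified; 100 mM Tris pH 7.5, 10 mM citrate, 25 mM KHCO3, 1% DMSO. Started with 200 μM NADH and acetyl-CoA plus 500 μM ATP; PK/LDH-coupled A340 decrease read 15 min at 25° C. IC50 by nonlinear fit of low-control-subtracted slopes.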
With `CCC(NC(C)=O)c1ccc(C2CCN(c3ccc(OCC4CC4(F)F)cc3)CC2)cc1` (centres unmarked) [Example 1.205], the IC50 was determined as 0.66 µM. Next, `CC(=O)N[C@@H](C)c1ccc(C2CCN(c3cc(C#N)ccn3)CC2)cc1` [Example 5.28]: 8 µM; `CC(=O)N[C@@H](C)c1ccc(C2CCN(c3ncc(-c4ccc(C(C)C)cc4)cn3)CC2)cc1` [Example 10.11]: 5.8 µM; `CC(=O)N[C@@H](C)c1ccc(C2CCN(c3ncc(-c4ccc5c(c4)CCO5)cn3)CC2)cc1` [Example 10.24]: 0.07 µM.

For the molecule `CC(=O)N[C@@H](C)c1ccc(C2CCN(c3ccc(C(F)(F)F)cn3)CC2)cc1` [Example 4.17], the half-inhibitory concentration (IC50) turned out to be 0.44 µM. For `CCOc1ccc(N2CCC(c3ccc([C@H](C)NS(=O)(=O)C4CCC4)cc3)CC2)cc1` [Example 17.3], the IC50 is 7.5 µM. As for `CC(=O)N[C@@H](C)c1ccc(C2CCN(c3ncc(-c4ccc5sccc5c4)cn3)CC2)cc1` [Example 10.75], the figure is 0.05 µM; as for `CCN(CC)C(=O)c1cnc(N2CCC(c3ccc([C@H](C)NC(C)=O)cc3)CC2)nc1` [Example 18.91], 0.91 µM.

As for `CC(=O)N[C@@H](C)c1ccc(C2CCN(c3cccc(OCC4CCCCO4)c3)CC2)cc1` (some centres unmarked) [Example 9.15], the half-inhibitory concentration (IC50) was determined as 0.37 µM. As to `CC(=O)N[C@@H](C)c1ccc(C2CCN(c3cccc(C(=O)N4CCc5ccccc5C4)c3)CC2)cc1` [Example 29.1, (S)—N-(1-(4-(1-(3-(1,2,3,4-Tetrahydroisoquinoline-2-carbonyl)phenyl)piperidin-4-yl)phenyl)ethyl)acetamide], the concentration for half-maximal inhibition (IC50) came to 1.6 µM.

In the case of `CCOc1ccc(N2CCC(c3ccc([C@H](C)NC(=O)CO)cc3)CC2)cc1` [Example 6.48], the IC50 stood at 3.7 µM. As to `CC(=O)N[C@@H](C)c1ccc(C2CCN(c3ncc(-c4cnc(Br)n4C)cn3)CC2)cc1` [Example 10.74], the half-maximal inhibitory concentration (IC50) worked out at 1.2 µM. With `CC(=O)N[C@@H](C)c1ccc(C2CCN(c3ncc(C(=O)N4Cc5ccncc5C4)cn3)CC2)cc1` [Example 18.46], the IC50 was found to be 6 µM. In the case of `CCOc1ccc(N2CCC(c3ccc([C@H](C)NC(=O)C4(C)CC4)cc3)CC2)cc1` [Example 6.9], the IC50 is 0.15 µM. In the case of `CC(=O)N[C@@H](C)c1ccc(C2CCN(c3ccnc(OCc4cccc(F)c4)c3)CC2)cc1` [Example 19.32], the IC50 worked out at 0.27 µM. On to `CCCNc1cc(N2CCC(c3ccc([C@H](C)NC(C)=O)cc3)CC2)ncn1` [Example 11.42], for which the 50% inhibitory concentration (IC50) is 7.1 µM. As for `CCOc1ccc(N2CCC(c3ccc([C@H](C)NC(=O)C4(C(F)(F)F)CC4)cc3)CC2)cc1` [Example 6.34], the figure is 0.25 µM. Turning to `C[C@H](NC(=O)N(C)C)c1ccc(C2CCN(c3ncc(-c4ccccc4F)cn3)CC2)cc1` [Example 10.110], the IC50 was 0.43 µM.

On to `CC(=O)N[C@@H](C)c1ccc(C2CCN(c3ccc(OCc4ccccc4)nc3)CC2)cc1` [Example 1.54], for which the IC50 was found to be 0.13 µM.

Turning to `CC(=O)N[C@@H](C)c1ccc(C2CCN(c3ccc4[nH]c(C)cc4c3)CC2)cc1` [Example 1.76], the half-maximal inhibitory concentration (IC50) was found to be 1.9 µM.

With `CCCOc1cc(N2CCC(c3ccc([C@H](C)NC(C)=O)cc3)CC2)ncn1` [Example 11.1], the half-inhibitory concentration (IC50) came out at 0.18 µM.

In the case of `C[C@H](NC(=O)C1CC1)c1ccc(C2CCN(c3nc(N4CCCC4)ncc3F)CC2)cc1` [Example 11.121], the half-inhibitory concentration (IC50) was found to be 0.47 µM.

For `CC(=O)N[C@@H](C)c1ccc(C2CCN(c3ncc(-c4ccc(C(F)(F)F)nc4)cn3)CC2)cc1` [Example 10.85], the 50% inhibitory concentration (IC50) worked out at 2.6 µM. As for `CC(=O)N[C@@H](C)c1ccc(C2CCN(c3nccc(C4CC4)c3C)CC2)cc1` [Example 10.303], the figure is 0.16 µM; as for `CC(=O)N[C@@H](C)c1ccc(C2CCN(c3ncc(C(=O)N(C)C4CCS(=O)(=O)C4)cn3)CC2)cc1` (some centres unmarked) [Example 18.69], 20.8 µM; as for `C[C@H](NC(=O)C1CC1)c1ccc(C2CCN(c3cnc(NCC4CC4)nc3)CC2)cc1` [Example 16.9], 6.7 µM. Regarding `CC(=O)N[C@@H](C)c1ccc(C2CCN(c3ccc(OC4CC4)cc3OC3CC3)CC2)cc1` [Example 1.94], the concentration for half-maximal inhibition (IC50) was 0.21 µM.

As to `C[C@H](NC(=O)N(C)C)c1ccc(C2CCN(c3ncc(-c4ccoc4)cn3)CC2)cc1` [Example 10.113], the IC50 worked out at 0.53 µM. Next, `CC(=O)N[C@@H](C)c1ccc(C2CCN(c3ccc(Cl)cc3)CC2)cc1` [Example 1.46]: 0.7 µM; `CCCOc1ccc(N2CCC(c3ccc([C@H](C)NC(=O)C4CC4)cc3)CC2)c(OC)c1` [Example 1.116]: 0.77 µM.

In the case of `C=CCCOc1cccc(N2CCC(c3ccc([C@H](C)NC(C)=O)cc3)CC2)c1` [Example 9.10], the half-maximal inhibitory concentration (IC50) came to 0.53 µM.

On to `CCOc1ccc(N2CCC(c3ccc([C@H](C)NC(=O)c4ccncc4)cc3)CC2)cc1` [Example 6.40], for which the half-maximal inhibitory concentration (IC50) is 1.2 µM. As for `COCc1nc(N2CCC(c3ccc([C@H](C)NC(C)=O)cc3)CC2)no1` [Example 26.4], the IC50 was found to be 9.1 µM. Regarding `CCOc1ccc(N2CCC(c3ccc([C@H](C)NC(=O)N(C)C)cc3)CC2)c(OCC)c1` [Example 1.129], the IC50 was found to be 3.5 µM. Consider `CC(=O)N[C@@H](C)c1ccc(C2CCN(c3ncc(-c4nc5ccccc5[nH]4)cn3)CC2)cc1` [Example 23.1, (S)—N-[1-(4-{1-[5-(1H-Benzoimidazol-2-yl)-pyrimidin-2-yl]-piperidin-4-yl}-phenyl)-ethyl]-acetamide], for which the IC50 amounted to 0.29 µM. In the case of `CC(=O)N[C@@H](C)c1ccc(C2CCN(c3ncc(-c4ccc(F)cc4)cn3)CC2)cc1` [Example 10.9], the IC50 is 0.02 µM. Take `CC(=O)N[C@@H](C)c1ccc(C2CCN(c3nc4ccccc4o3)CC2)cc1` [Example 4.9]: the IC50 stood at 1.9 µM. Next, `CC(=O)N[C@@H](C)c1ccc(C2CCN(c3ccnc(OCCC(C)(C)C)n3)CC2)cc1` [Example 11.11]: 0.82 µM. On to `CC(=O)N[C@@H](C)c1ccc(C2CCN(c3ccc(-c4ccc(F)cc4)cn3)CC2)cc1` [Example 10.310], for which the IC50 was found to be 0.04 µM. As for `CCCNc1nccc(N2CCC(c3ccc([C@H](C)NC(C)=O)cc3)CC2)n1` [Example 11.41], the 50% inhibitory concentration (IC50) came out at 3.1 µM. In the case of `CC(=O)N[C@@H](C)c1ccc(C2CCN(c3noc(-c4ccccc4)n3)CC2)cc1` [Example 26.1, (S)—N-(1-{4-[1-(5-Phenyl-[1,2,4]oxadiazol-3-yl)-piperidin-4-yl]-phenyl}-ethyl)-acetamide], the IC50 worked out at 1.9 µM.

In the case of `C[C@H](NC(=O)C1CC1)c1ccc(C2CCN(c3ncc(-c4ccc(F)cc4)cn3)CC2)cc1` [Example 10.101], the IC50 came out at 0.08 µM. As for `CCCOc1ccc(N2CCC(c3ccc([C@H](C)NC(=O)CC)cc3)CC2)cc1` [Example 1.145], the figure is 0.14 µM; as for `CC(=O)N[C@@H](C)c1ccc(C2CCN(c3ncc(C(=O)NCCC(C)O)cn3)CC2)cc1` (some centres unmarked) [Example 18.75], 17.8 µM; as for `CC(=O)N[C@@H](C)c1ccc(C2CCN(c3ccnc(OCCC(C)C)c3)CC2)cc1` [Example 19.21], 0.22 µM. As to `CCOc1cc(N2CCC(c3ccc([C@H](C)NC(=O)C4CC4)cc3)CC2)ccn1` [Example 1.20], the IC50 was 0.29 µM. As for `CC(=O)N[C@@H](C)c1ccc(C2CCN(c3ccc(C(=O)Nc4ccccc4)cn3)CC2)cc1` [Example 5.30], the figure is 0.18 µM.

With `C[C@H](NC(=O)C1CC1)c1ccc(C2CCN(c3nc(OC4CCC4)ncc3F)CC2)cc1` [Example 11.124], the IC50 was 0.88 µM.

In the case of `CC(=O)N[C@@H](C)c1ccc(C2CCN(c3cc(N4CCC4)ncn3)CC2)cc1` [Example 11.99], the IC50 is 2.5 µM. As for `CCC(C)Oc1ccc(N2CCC(c3ccc([C@H](C)NC(C)=O)cc3)CC2)c(OC)c1` (some centres unmarked) [Example 1.39], the figure is 0.13 µM; as for `C[C@H](NC(=O)N(C)C)c1ccc(C2CCN(c3cccc(OCC4CC4)c3)CC2)cc1` [Example 1.80], 0.53 µM. As for `CC(=O)N[C@@H](C)c1ccc(C2CCN(c3ncc(-c4cccnc4)cn3)CC2)cc1` [Example 10.12], the IC50 was 0.36 µM. Turning to `CCOc1ccc(N2CCC(c3ccc(C(CC)NC(C)=O)cc3)CC2)cc1` (centres unmarked) [Example 1.206], the concentration for half-maximal inhibition (IC50) was determined as 4.7 µM. With `CCCOc1ccnc(N2CCC(c3ccc([C@H](C)NC(C)=O)cc3)CC2)c1` [Example 5.48], the IC50 is 0.42 µM. Take `CC(=O)N[C@@H](C)c1ccc(C2CCN(c3ccnc(N(C)C4CC4)n3)CC2)cc1` [Example 11.86]: the IC50 is 0.77 µM. Regarding `CC(=O)N[C@@H](C)c1ccc(C2CCN(c3ncc(Cl)cn3)CC2)cc1` [Example 4.29], the 50% inhibitory concentration (IC50) is 1.7 µM. For `CCOc1ccc(N2CCC(c3ccc([C@H](C)NC(=O)c4cccnc4)cc3)CC2)cc1` [Example 6.31], the 50% inhibitory concentration (IC50) came out at 2.8 µM.

In the case of `CC(=O)N[C@@H](C)c1ccc(C2CCN(c3ncc(C(=O)N4CCCCC4)cn3)CC2)cc1` [Example 18.11], the IC50 worked out at 0.74 µM.

Take `CC(=O)N[C@@H](C)c1ccc(C2CCN(c3ccc4c(c3)ncn4C)CC2)cc1` [Example 1.72]: the concentration for half-maximal inhibition (IC50) came out at 23.7 µM.

For the molecule `CCOc1ccc(N2CCC(c3ccc([C@H](C)NC(=O)Nc4ncccn4)cc3)CC2)cc1` [Example 14.56], the IC50 turned out to be 14.7 µM. Consider `CC(=O)N[C@@H](C)c1ccc(C2CCN(c3ccc(OCC4CC4(F)F)cc3)CC2)cc1` (some centres unmarked) [Example 8.66], for which the IC50 turned out to be 0.06 µM.

With `COCCOc1ccc(N2CCC(c3ccc([C@H](C)NC(C)=O)cc3)CC2)cc1C#N` [Example 8.20], the half-maximal inhibitory concentration (IC50) was found to be 12 µM. Take `CC(=O)N[C@@H](C)c1ccc(C2CCN(c3ccnc(OCC(F)F)c3)CC2)cc1` [Example 19.19]: the 50% inhibitory concentration (IC50) was 0.11 µM.

`C[C@H](NC(=O)N(C)C)c1ccc(C2CCN(c3ncc(-c4ccc5c(c4)CCO5)cn3)CC2)cc1` [Example 10.99]: the IC50 is 0.38 µM. As for `CC(=O)N[C@@H](C)c1ccc(C2CCN(c3cc(Oc4cccc(F)c4)ncn3)CC2)cc1` [Example 11.27], the concentration for half-maximal inhibition (IC50) stood at 0.3 µM.
